Three molecules from patent publication US20230203081A1, “LINCOSAMIDE ANTIBIOTICS AND USES THEREOF” (President and Fellows of Harvard College, priority 2020, published 2023) can be followed below.

What all share (assay type): cell-based
One assay relates to E. coli armA. The assay can be described thus: microbe, parasite or virus in culture. Conditions: Escherichia coli, E. coli armA. In outline:
(§1)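 Inoculum for broth microdilution was 5×10^5 CFU/mL final, prepared from overnight 35° C blood-agar subcultures (separate handling for streptococcal and anaerobic strains); MICs read by CLSI broth microdilution or agar dilution.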

The next assay relates to E. coli ΔTolC. In words: microbe, parasite or virus in culture. The following applies: Escherichia coli, E. coli ΔTolC. In outline: as §1
The subject of assay [1] is E. faecalis VRE. In words: MIC (CLSI), first E. faecalis VRE line of Table 4. The following applies: Enterococcus faecalis; E. faecalis VRE (Table 4, first VRE line); read-out: MIC. Here is the method: (§2) Minimum inhibitory concentrations (MICs) were determined by broth microdilution method or agar dilution method following the Clinical and Laboratory Standards Institute guidelines. Standard bacterial strains were obtained from American Type Culture Collection (ATCC). Other bacterial strains were obtained from hospitals and commercial sources, so noted in Table 11. Before the start of the MIC experiment, standard and test compound stock solutions were prepared in dimethyl sulfoxide (DMSO, Aldrich D2650) at a stock concentration of 5,120 μg/mL. The compound concentration range typically employed for each experiment was 128-0.06 μg/mL (2.5% final DMSO concentration). Clindamycin was used as a comparator in all experiments and each experiment was performed in triplicate. Specialized procedures were employed for streptococcal and anaerobic strains. All other bacterial strains were sub-cultured on blood agar plates (tryptic soy agar with 5% sheep blood, Hardy Diagnostics) and incubated overnight at 35° C. Organisms were suspended in cation-adjusted Mueller-Hinton broth (CaMHB, BD 212322) and optical density was adjusted to 0.5 McFarland standard. Suspensions were further diluted to obtain a final inoculum of 5×10^5 CFU/mL for broth microdilution experiments.

Assay [2] concerns E. faecalis VRE. The assay can be described thus: MIC (CLSI), second E. faecalis VRE line of Table 4. The following applies: Enterococcus faecalis; E. faecalis VRE (Table 4, second VRE line); read-out: MIC. On the procedure: as §2
The test system of assay [3] is E. faecalis VRE. In words: MIC (CLSI), third E. faecalis VRE line of Table 4. Conditions: Enterococcus faecalis; E. faecalis VRE (Table 4, third VRE line); read-out: MIC. Here is the method:
as §2

For the next assay, the system named is E. faecium VRE. The assay can be described thus: MIC (broth microdilution or agar dilution, CLSI). Conditions: Enterococcus faecium; E. faecium VRE; read-out: MIC. In a few lines: (§3)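 Triplicate CLSI determinations by broth or agar dilution, compound at 128-0.06 μg/mL in 2.5% DMSO; special handling for anaerobes. Broth microdilution used 5×10^5 CFU/mL inocula in cation-adjusted Mueller-Hinton broth.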
(In general: Broth dilution looks for growth in wells or tubes with falling amounts of substance.)

The test system of a further assay is S. aureus cErmA. In words: MIC (broth microdilution or agar dilution, CLSI). Conditions: Staphylococcus aureus; S. aureus cErmA; read-out: MIC. In outline:
as §3

The test system of the next assay is E. faecium Clinical VRE. The assay can be described thus: MIC (broth microdilution or agar dilution, CLSI). Conditions: Enterococcus faecium; E. faecium Clinical VRE; read-out: MIC. In a few lines:
as §3

For the next assay, the system named is E. faecium Line R & VRE. The assay can be described thus: MIC (broth microdilution or agar dilution, CLSI). Conditions: Enterococcus faecium, E. faecium Line R & VRE, read-out: MIC. In a few lines:
as §3

The next assay has as its system P. aeruginosa ATCC 27853. The assay can be described thus: MIC (broth microdilution or agar dilution, CLSI). The following applies: Pseudomonas aeruginosa, ATCC27853; P. aeruginosa ATCC 27853; read-out: MIC. In outline:
as §3

A further assay relates to S. aureus MRSA. In words: MIC (broth microdilution or agar dilution, CLSI). Conditions: Staphylococcus aureus. In outline:
as §3

The next assay deals with E. coli LptD. In words: MIC (broth microdilution or agar dilution, CLSI). Conditions: Escherichia coli, E. coli LptD; read-out: MIC. In a few lines:
as §1

A further assay relates to E. coli ATCC 25922. In words: MIC (broth microdilution or agar dilution, CLSI). The following applies: Escherichia coli, ATCC25922; E. coli ATCC 25922; read-out: MIC. In outline:
as §1

The test system of another assay is A. baumannii ATCC 19606. The assay can be described thus: MIC (broth microdilution or agar dilution, CLSI). Conditions: Acinetobacter baumannii, ATCC19606; A. baumannii ATCC 19606; read-out: MIC. In outline:
as §1

For assay [4], the system named is S. pneumoniae MMX 3028 cErmB. In words: MIC (broth microdilution or agar dilution, CLSI). Conditions: Streptococcus pneumoniae, MMX3028CERMB; S. pneumoniae MMX 3028 cErmB; read-out: MIC. In outline: as §1
The next assay relates to S. aureus hVISA. The assay can be described thus: MIC (broth microdilution or agar dilution, CLSI). Conditions: Staphylococcus aureus; S. aureus hVISA; read-out: MIC. In a few lines: as §1
Assay [5] deals with E. faecalis MMX 847; cErmB. The assay can be described thus: MIC (broth microdilution or agar dilution, CLSI). The following applies: Enterococcus faecalis; E. faecalis MMX 847; cErmB; read-out: MIC. In outline:
as §1

The subject of a further assay is S. aureus ATCC 29213. In words: MIC (broth microdilution or agar dilution, CLSI). Conditions: Staphylococcus aureus, ATCC29213, S. aureus ATCC 29213; read-out: MIC. In outline: as §1
The subject of another assay is S. pneumoniae ATCC 6303. The assay can be described thus: MIC (broth microdilution or agar dilution, CLSI). Conditions: Streptococcus pneumoniae, ATCC6303; S. pneumoniae ATCC 6303; read-out: MIC. In a few lines: as §1
The test system of assay [6] is S. aureus ATCC BAA-1707 (MRSA). In words: MIC (broth microdilution or agar dilution, CLSI). The following applies: Staphylococcus aureus; S. aureus ATCC BAA-1707 (MRSA); read-out: MIC. In a few lines:
as §1

The test system of the next assay is S. aureus ATCC 700699. In words: MIC (broth microdilution or agar dilution, CLSI). Conditions: Staphylococcus aureus, ATCC700699; S. aureus ATCC 700699; read-out: MIC. In outline: as §1
The subject of assay [7] is S. pneumoniae MMX 3031 cMefA. The assay can be described thus: MIC (broth microdilution or agar dilution, CLSI). Conditions: Streptococcus pneumoniae, MMX3031CMEFA, S. pneumoniae MMX 3031 cMefA; read-out: MIC. In a few lines:
as §1

Another assay relates to K. oxytoca Clinical. The assay can be described thus: MIC (broth microdilution or agar dilution, CLSI). The following applies: Klebsiella oxytoca; K. oxytoca Clinical; read-out: MIC. In a few lines:
as §1

Another assay concerns E. faecalis ATCC 29212. The assay can be described thus: MIC (broth microdilution or agar dilution, CLSI). Conditions: Enterococcus faecalis, ATCC29212, E. faecalis ATCC 29212; read-out: MIC. In a few lines:
as §1

The test system of a further assay is S. pyogenes ATCC 19615. In words: MIC (broth microdilution or agar dilution, CLSI). Conditions: Streptococcus pyogenes, ATCC19615, S. pyogenes ATCC 19615; read-out: MIC. In a few lines:
as §1

The subject of assay [8] is S. pyogenes MMX 946; cErmB. In words: MIC (broth microdilution or agar dilution, CLSI). The following applies: Streptococcus pyogenes; S. pyogenes MMX 946; cErmB; read-out: MIC. In a few lines: as §1
Another assay deals with S. pneumoniae ATCC 49619. The assay can be described thus: MIC (broth microdilution or agar dilution, CLSI). Conditions: Streptococcus pneumoniae, ATCC49619, S. pneumoniae ATCC 49619; read-out: MIC. In outline: as §1
The subject of the next assay is P. aeruginosa ΔAmex OprM. In words: MIC (broth microdilution or agar dilution, CLSI). The following applies: Pseudomonas aeruginosa. In a few lines:
as §3

≈ marks a conversion by molar mass, not a printed value.

As for `CS[C@H]1O[C@H]([C@H](NC(=O)[C@H]2NC[C@@H]3C[C@H](CC(C)C)CCO[C@H]32)[C@H](C)Sc2ccc(CN(C)C)cc2)[C@H](O)[C@H](O)[C@H]1O` [FSA-09-04-092, (4S,5aS,8S,8aR)-N-((1S,2S)-2-((4-((Dimethylamino)methyl)phenyl)thio)-1-((2R,3R,4S,5R,6R)-3,4,5-trihydroxy-6-(methylthio)tetrahydro-2H-pyran-2-yl)propyl)-4-isobutyloctahydro-2H-oxepino[2,3-c]pyrrole-8-carboxamide], the MIC was 4 µg/mL (≈ 6.39 µM) in the assay on E. coli armA; 0.25 µg/mL (≈ 0.399 µM) with E. coli ΔTolC; 4 µg/mL (≈ 6.39 µM) with E. faecalis VRE [1]; 8 µg/mL (≈ 12.8 µM) in the assay with E. faecalis VRE [2]; 4 µg/mL (≈ 6.39 µM) with E. faecalis VRE [3]; 4 µg/mL (≈ 6.39 µM) in the assay on E. faecium VRE. Besides, the MIC was found to be 4 µg/mL (≈ 6.39 µM) in the assay with S. aureus cErmA; 1 µg/mL (≈ 1.6 µM) in the assay with E. faecium Clinical VRE; 2 µg/mL (≈ 3.2 µM) in the assay on E. faecium Line R & VRE; 64 µg/mL (≈ 102 µM) in the assay on P. aeruginosa ATCC 27853; 0.25 µg/mL (≈ 0.399 µM) against S. aureus MRSA; 0.5 µg/mL (≈ 0.799 µM) in the assay on E. coli LptD. Besides, the MIC is 4 µg/mL (≈ 6.39 µM) in the assay on E. coli ATCC 25922; 16 µg/mL (≈ 25.6 µM) in the assay with A. baumannii ATCC 19606; 0.125 µg/mL (≈ 0.2 µM) in assay [4]; 16 µg/mL (≈ 25.6 µM) in the assay with S. aureus hVISA; 1 µg/mL (≈ 1.6 µM) in assay [5]; 0.5 µg/mL (≈ 0.799 µM) in the assay with S. aureus ATCC 29213. Moreover, the MIC is 0.06 µg/mL (≈ 0.0959 µM) with S. pneumoniae ATCC 6303; 0.25 µg/mL (≈ 0.399 µM) in [6]; 8 µg/mL (≈ 12.8 µM) in the assay on S. aureus ATCC 700699; 0.06 µg/mL (≈ 0.0959 µM) in [7]; 8 µg/mL (≈ 12.8 µM) with K. oxytoca Clinical; 0.25 µg/mL (≈ 0.399 µM) in the assay with E. faecalis ATCC 29212. Also, the MIC (with S. pyogenes ATCC 19615; in assay [8]; in the assay on S. pneumoniae ATCC 49619) was 0.25 µg/mL (≈ 0.399 µM) throughout.

Turning to `C=CC[C@@H]1CCO[C@@H]2[C@H](CN[C@@H]2C(=O)N[C@H]([C@H](C)Cl)[C@H]2OC(SC)[C@H](O)[C@H](O)C2O)C1` (stereo partly drawn) [FSA-10-09-045], the MIC against E. coli armA is 8 µg/mL (≈ 16.7 µM); in the assay on E. faecalis VRE [1], 16 µg/mL (≈ 33.4 µM); in the assay on E. faecalis VRE [2], 32 µg/mL (≈ 66.8 µM); in the assay with E. faecalis VRE [3], 8 µg/mL (≈ 16.7 µM); against P. aeruginosa ΔAmex OprM, 2 µg/mL (≈ 4.18 µM); with E. faecium VRE, 8 µg/mL (≈ 16.7 µM). Further, the MIC with E. faecium Line R & VRE is 16 µg/mL (≈ 33.4 µM); with P. aeruginosa ATCC 27853, more than 128 µg/mL; against S. aureus MRSA, 0.06 µg/mL (≈ 0.125 µM); with A. baumannii ATCC 19606 it was 16 µg/mL (≈ 33.4 µM); in assay [4] it was 0.5 µg/mL (≈ 1.04 µM); with S. aureus hVISA, 8 µg/mL (≈ 16.7 µM). In addition, the MIC in assay [5] was 8 µg/mL (≈ 16.7 µM); in the assay with S. pneumoniae ATCC 6303, 0.06 µg/mL (≈ 0.125 µM); in [6], 0.06 µg/mL (≈ 0.125 µM); with S. aureus ATCC 700699, 8 µg/mL (≈ 16.7 µM); in [7], 0.06 µg/mL (≈ 0.125 µM); in assay [8], 1 µg/mL (≈ 2.09 µM).

`CCC[C@@H]1CCO[C@@H]2[C@H](CN[C@@H]2C(=O)N[C@H]([C@H](C)Cl)[C@H]2OC(SC)[C@H](O)[C@H](O)C2O)C1` (stereo partly drawn) [FSA-10-09-051]: the MIC in the assay with E. coli armA is 8 µg/mL (≈ 16.6 µM); in the assay with E. faecalis VRE [1], 8 µg/mL (≈ 16.6 µM); in the assay with E. faecalis VRE [2] it was 8 µg/mL (≈ 16.6 µM); with E. faecalis VRE [3], 2 µg/mL (≈ 4.16 µM); against P. aeruginosa ΔAmex OprM it was 2 µg/mL (≈ 4.16 µM); in the assay on E. faecium VRE it was 4 µg/mL (≈ 8.32 µM). Moreover, the MIC is 8 µg/mL (≈ 16.6 µM) with E. faecium Line R & VRE; more than 128 µg/mL in the assay with P. aeruginosa ATCC 27853; 0.06 µg/mL (≈ 0.125 µM) in the assay on S. aureus MRSA; 8 µg/mL (≈ 16.6 µM) with A. baumannii ATCC 19606; 0.25 µg/mL (≈ 0.52 µM) in assay [4]; 8 µg/mL (≈ 16.6 µM) in the assay on S. aureus hVISA. Besides, the MIC in assay [5] was 4 µg/mL (≈ 8.32 µM); with S. pneumoniae ATCC 6303, 0.06 µg/mL (≈ 0.125 µM); in [6], 0.06 µg/mL (≈ 0.125 µM); in the assay on S. aureus ATCC 700699, 4 µg/mL (≈ 8.32 µM); in [7], 0.06 µg/mL (≈ 0.125 µM); in assay [8], 0.5 µg/mL (≈ 1.04 µM).
